Measurements from publication PMC4467913 (Phytochemistry letters, 2015).

How the values were obtained:
Staphylococcus aureus = assay: Growth inhibition assay, S. aureus; format: cell-based; details: highest concentration tested 50 µg/mL
elastase = assay: Protease inhibition assay, elastase; format: biochemical; details: highest concentration tested 13 µM
Candida albicans = assay: Growth inhibition assay, C. albicans; format: cell-based; details: highest concentration tested 50 µg/mL
Escherichia coli = assay: Growth inhibition assay, E. coli; format: cell-based; details: highest concentration tested 50 µg/mL
chymotrypsin = assay: Protease inhibition assay, chymotrypsin; format: biochemical; details: highest concentration tested 13 µM
Mycobacterium smegmatis = assay: Growth inhibition assay, M. smegmatis; format: cell-based; details: highest concentration tested 50 µg/mL
[1] = system: Mycobacterium tuberculosis; details: highest concentration tested 50 µg/mL
trypsin = assay: Protease inhibition assay, trypsin; format: biochemical; details: highest concentration tested 13 µM
HT-29 cancer cell line = assay: Cytotoxicity assay, HT-29; format: cell-based, human; details: highest concentration tested 33 µM
[2] = system: MDA-MB-435 cancer cell line; assay: Cytotoxicity assay, MDA-MB-435; format: cell-based, human; details: highest concentration tested 33 µM

cyclo[L-Val2-L-Ser-L-Ile-L-Asn-L-Val1-L-Phe-L-Pro-] [Microseiramide (1)]
no activity was observed: growth inhibition (Staphylococcus aureus) | protease inhibition (elastase) | growth inhibition (Candida albicans) | growth inhibition (Escherichia coli) | protease inhibition (chymotrypsin) | growth inhibition (Mycobacterium smegmatis) | growth inhibition [1] | protease inhibition (trypsin) | cytotoxicity (HT-29 cancer cell line) | cytotoxicity [2]
